Here are results for one compound from patent US20080200436A1 (priority 2004, published 2008).

One assay has as its system VEGF RTK. The following applies: cited from earlier work.
A further assay has as its system LNCaP tumour xenografts. Description: LNCaP Human Prostate Cancer Xenograft Model. The class given is in vivo, Swiss nude mice. The following applies: for tumour volume versus orchiectomy and control groups: P<0.001 versus each group. The procedure:
Six to eight-week-old Swiss nude mice were given one injection in the anterior flank with 5×10^6 tumour cells suspended in 0.1 ml of serum-free medium with the addition of 100 μl of Matrigel. Once tumours were established, mice were randomized into control and treatment groups.
Mice were examined twice a week, and tumours were measured with calipers across the greatest two diameters. At the time of euthanasia, tumours were removed by dissection away from adjacent organs and structures and weighed on an analytical balance. For histologic analysis, tissue samples were fixed in 10% neutral buffered formalin and processed through graded ethanols and xylenes for paraffin embedding and staining using standard methods. For calculation of percent necrosis, 5 random fields per tumour were examined at low power (10×) from tumours harvested at 40 days. The necrotic area(s) in each field was/were circumscribed electronically using the tools available in the ImagePro computerized image analysis package (Media Cybernetics) to create an area. A human operator carried out this identification and circling of the necrotic area for all analyzed issues. Using the total area of the section as the denominator, the percentage of necrosis was evaluated for each field. To obtain an average for a whole experimental tumour group, the percent necrosis for each field was averaged across the total number of tumours in the group.
Repeated measure models were used for the analysis of the in vivo tumour volumes. Several covariance structures, including AR- 1 and random coefficient models, were used and all yielded similar conclusions. The analyses reported herein are based on a random coefficient model with robust estimates of the covariance matrix. Specific comparisons between treatment groups were made using F-test based on contrasts. Statistical analyses were carried out in SAS PROC MIXED; the plots were prepared in GAUSS 5.0. Error bars represent one standard error from the mean. Time from treatment initiation to the time that tumour volumes exceeded a cut-off value (a tumour volume of >300 mm^3) were estimated with Kaplan-Meier curves and compared across treatment groups with the log-rank test. Tumour volume cut-offs were used to avoid using a survival endpoint, which would have involved significant animal distress and to employ a threshold that was appropriate for comparing the tumour growth data across all groups.
In general terms: Xenograft models place foreign cells or tissue in a host animal.

Consider `COc1cc2c(Nc3ccc(Br)cc3F)ncnc2cc1OCC1CCN(C)CC1` [ZD6474, 4-(4-bromo-2-fluoroanilino)-6-methoxy-7-(1-methylpiperidin-4-ylmethoxy)quinazoline], for which the “inhibition of VEGF RTK” value in the assay with VEGF RTK is on record as “potent inhibitor”. In the assay with LNCaP tumour xenografts (ZD6474 alone 50 mg/kg/day for 40 days, then withdrawn, normal mice), the “delay before tumour growth resumed after compound withdrawal” value is “approximately 15 days”. Moreover, the “tumour volume versus orchiectomy and control groups” value was “significant differences in tumour volume” in the assay with LNCaP tumour xenografts (ZD6474 alone 50 mg/kg/day, after 38 days of treatment) and “significant differences were observed” with LNCaP tumour xenografts (combination therapy group (ZD6474 50 mg/kg/day plus orchiectomy), after 38 days). In addition, the “tumour volume versus orchiectomy group” value in the assay with LNCaP tumour xenografts (ZD6474 alone 50 mg/kg/day, days 13 to 38 post-treatment, P<0.05) is on record as “Statistically significant differences”. Besides, the percentage of necrosis in the assay with LNCaP tumour xenografts (ZD6474 alone, 50 mg/kg/day once daily p.o., normal mice, tumours harvested at day 40, 5 tumours, vehicle control 31±7%) came to 48±5%; in the assay on LNCaP tumour xenografts (combination of orchiectomy and ZD6474 50 mg/kg/day, tumours harvested at day 40, versus 51±5% in monotherapy, P=0.01) it was 73±6%. In addition, the “rate of tumour growth after ZD6474 withdrawal versus untreated tumours” value with LNCaP tumour xenografts (previously ZD6474 treated tumours, delay of approximately 15 days taken into account) is listed as “no significant difference”.
